Experimental data from article PMC11423305, “Structure-Based Design of CBP/EP300 Degraders: When Cooperativity Overcomes Affinity” (JACS Au, 2024).

Columns and labels:
Format in all cases: cell-based
CBP = molecular target: T1, CBP (Homo sapiens, UniProt Q92793); assay: Quantification of CBP degradation by Western blotting in LP1 cells
T1 construct: quantification of CBP and EP300 levels by Western blotting following 16 h treatment of LP1 cells; endogenous in cells; host or cells: LP1 cells
Procedure: (§1) LP1 cells were cultured in DMEM (Gibco, 41966-029) supplemented with 15 % FBS (Sigma, F9665); MM1S and LNCaP cells in RPMI 1640 ATCC modification (Gibco, […]
(§2) DMEM/F12 (Gibco, 11320074) supplemented with 1 % non-essential amino acids […]
(§3) additionally supplemented with 1 % penicillin/streptomycin (Gibco, 15070-063), and cells maintained in a humidified incubator with 5 % CO2 at 37 °C. The identity of all lines (except for MM1S which were recently purchased from ATCC) was authenticated by STR profiling (performed by Microsynth).
(§4) Quantification of CBP/EP300 degradation by Western blotting
(§5) LP1 cells plated on 6 well plates were treated with the stated compounds at a final concentration of 0.1 % DMSO for the stated time. Cells were harvested on ice, washed in PBS and lysed in RIPA buffer (50 mM tris pH 7.5, 2 mM EDTA, 150 mM NaCl, 0.5 % sodium deoxycholate, 1 % Triton X100) supplemented with cOmplete ™ protease inhibitor cocktail (Roche). Protein concentrations were determined using the Pierce ™ BCA Protein Assay Kit (Thermo Scientific, 23227) and equal amounts were separated on 4-12 % ExpressPl us™ PAGE gels (GenScript, M41215). Proteins were transferred to PVDF membranes, the membranes were blocked with 5 % milk (Merk Millipore, 115363) in PBS-T and proteins were stained with the following antibodies at 4 °C overnight: CBP […]
(§6) BRD4 (Bethyl Laboratories, A301-985A50, diluted 1:2000) and vinculin (Invitrogen, 42H89L44, diluted 1:1000). For detection, membranes were incubated for 1 h at room temperature with HRP-conjugated secondary antibodies (Southern Biotech, anti-rabbit […]
(§7) SuperSignal™ West Pico PLUS Chemiluminescent Substrate (Thermo Scientific, 34580) and the Vilber Fusion-FX7 imager. Bands were quantified using ImageJ software and protein levels normalized to protein from DMSO treated cells run on the same membrane. For dose response curves, data was fitted using a four -parameter dose-response curve in GraphPad Prism v. 9.5.1, where the top is fixed at 100 %. The DC50 was defined as the PROTAC concentration resulting in 50 % remaining protein. […]

LP1 cells = assay: Cell viability (resazurin), LP1; conditions: Homo sapiens, LP-1, 72 h, 3 days
Procedure: The primer sequences used were:
Gene Gene ID Forward Primer (5’-3’) Reverse primer (5’-3’)
myc NM_001354870.1 GTAGTGGAAAACCAGCC […]
crebbp NM_004380.3 TGTCACAGGGACAGGTGC […]
Cells were plated onto 96 well plates at the following densities in 90 μl volume: 3x104
LP1 cells/well or 5x10^3 LNCaP cells/well both plated same day as treatment, or 2x104
MM1S cells/well or 1.5x10^3 SH-SY5Y cells/well both plated day prior to treatment.
Compounds were added in 10 μl to give the stated concentrations with a final
concentration of 0.1 % DMSO. Following 3 days of compound treatment, resazurin
(Acros Organics, 189900010) was added at a f inal concentration of 86 μM and incubated
for the following times: MM1S 5 h, LP1 3 h, LNCaP 1 h 30 min, SH-SY5Y 6 h.
Fluorescence (excitation = 560 nm, emission = 590 nm) was measured using a
spectraMax M5 microplate reader (Molecular Devices) and cell viability was calculated
relative to DMSO treated cells on the same plate. Data was fitted using a four -parameter
dose-response curve in GraphPad Prism v. 9.5.1, where the top is fixed at 100 %. GI50
values were calculated as the concentration required to inhibit cell viability to 50 %
relative to DMSO treated cells after 3 days.
Sample digestion and clean up: Treated cells were washed in PBS and cell pellets
were then lysed in 4 % SDS/Tris-HCl, treated with High Intensity Focused Ultrasound […]

EP300 = molecular target: T2, EP300 (Homo sapiens, UniProt Q09472); assay: Quantification of EP300 degradation by Western blotting in LP1 cells; conditions: 5 μM compound, 16 h, Western blot
T2 construct: quantification of CBP and EP300 levels by Western blotting following 16 h treatment of LP1 cells; endogenous in cells; host or cells: LP1 cells
T2 sequence (Q09472 whole entry): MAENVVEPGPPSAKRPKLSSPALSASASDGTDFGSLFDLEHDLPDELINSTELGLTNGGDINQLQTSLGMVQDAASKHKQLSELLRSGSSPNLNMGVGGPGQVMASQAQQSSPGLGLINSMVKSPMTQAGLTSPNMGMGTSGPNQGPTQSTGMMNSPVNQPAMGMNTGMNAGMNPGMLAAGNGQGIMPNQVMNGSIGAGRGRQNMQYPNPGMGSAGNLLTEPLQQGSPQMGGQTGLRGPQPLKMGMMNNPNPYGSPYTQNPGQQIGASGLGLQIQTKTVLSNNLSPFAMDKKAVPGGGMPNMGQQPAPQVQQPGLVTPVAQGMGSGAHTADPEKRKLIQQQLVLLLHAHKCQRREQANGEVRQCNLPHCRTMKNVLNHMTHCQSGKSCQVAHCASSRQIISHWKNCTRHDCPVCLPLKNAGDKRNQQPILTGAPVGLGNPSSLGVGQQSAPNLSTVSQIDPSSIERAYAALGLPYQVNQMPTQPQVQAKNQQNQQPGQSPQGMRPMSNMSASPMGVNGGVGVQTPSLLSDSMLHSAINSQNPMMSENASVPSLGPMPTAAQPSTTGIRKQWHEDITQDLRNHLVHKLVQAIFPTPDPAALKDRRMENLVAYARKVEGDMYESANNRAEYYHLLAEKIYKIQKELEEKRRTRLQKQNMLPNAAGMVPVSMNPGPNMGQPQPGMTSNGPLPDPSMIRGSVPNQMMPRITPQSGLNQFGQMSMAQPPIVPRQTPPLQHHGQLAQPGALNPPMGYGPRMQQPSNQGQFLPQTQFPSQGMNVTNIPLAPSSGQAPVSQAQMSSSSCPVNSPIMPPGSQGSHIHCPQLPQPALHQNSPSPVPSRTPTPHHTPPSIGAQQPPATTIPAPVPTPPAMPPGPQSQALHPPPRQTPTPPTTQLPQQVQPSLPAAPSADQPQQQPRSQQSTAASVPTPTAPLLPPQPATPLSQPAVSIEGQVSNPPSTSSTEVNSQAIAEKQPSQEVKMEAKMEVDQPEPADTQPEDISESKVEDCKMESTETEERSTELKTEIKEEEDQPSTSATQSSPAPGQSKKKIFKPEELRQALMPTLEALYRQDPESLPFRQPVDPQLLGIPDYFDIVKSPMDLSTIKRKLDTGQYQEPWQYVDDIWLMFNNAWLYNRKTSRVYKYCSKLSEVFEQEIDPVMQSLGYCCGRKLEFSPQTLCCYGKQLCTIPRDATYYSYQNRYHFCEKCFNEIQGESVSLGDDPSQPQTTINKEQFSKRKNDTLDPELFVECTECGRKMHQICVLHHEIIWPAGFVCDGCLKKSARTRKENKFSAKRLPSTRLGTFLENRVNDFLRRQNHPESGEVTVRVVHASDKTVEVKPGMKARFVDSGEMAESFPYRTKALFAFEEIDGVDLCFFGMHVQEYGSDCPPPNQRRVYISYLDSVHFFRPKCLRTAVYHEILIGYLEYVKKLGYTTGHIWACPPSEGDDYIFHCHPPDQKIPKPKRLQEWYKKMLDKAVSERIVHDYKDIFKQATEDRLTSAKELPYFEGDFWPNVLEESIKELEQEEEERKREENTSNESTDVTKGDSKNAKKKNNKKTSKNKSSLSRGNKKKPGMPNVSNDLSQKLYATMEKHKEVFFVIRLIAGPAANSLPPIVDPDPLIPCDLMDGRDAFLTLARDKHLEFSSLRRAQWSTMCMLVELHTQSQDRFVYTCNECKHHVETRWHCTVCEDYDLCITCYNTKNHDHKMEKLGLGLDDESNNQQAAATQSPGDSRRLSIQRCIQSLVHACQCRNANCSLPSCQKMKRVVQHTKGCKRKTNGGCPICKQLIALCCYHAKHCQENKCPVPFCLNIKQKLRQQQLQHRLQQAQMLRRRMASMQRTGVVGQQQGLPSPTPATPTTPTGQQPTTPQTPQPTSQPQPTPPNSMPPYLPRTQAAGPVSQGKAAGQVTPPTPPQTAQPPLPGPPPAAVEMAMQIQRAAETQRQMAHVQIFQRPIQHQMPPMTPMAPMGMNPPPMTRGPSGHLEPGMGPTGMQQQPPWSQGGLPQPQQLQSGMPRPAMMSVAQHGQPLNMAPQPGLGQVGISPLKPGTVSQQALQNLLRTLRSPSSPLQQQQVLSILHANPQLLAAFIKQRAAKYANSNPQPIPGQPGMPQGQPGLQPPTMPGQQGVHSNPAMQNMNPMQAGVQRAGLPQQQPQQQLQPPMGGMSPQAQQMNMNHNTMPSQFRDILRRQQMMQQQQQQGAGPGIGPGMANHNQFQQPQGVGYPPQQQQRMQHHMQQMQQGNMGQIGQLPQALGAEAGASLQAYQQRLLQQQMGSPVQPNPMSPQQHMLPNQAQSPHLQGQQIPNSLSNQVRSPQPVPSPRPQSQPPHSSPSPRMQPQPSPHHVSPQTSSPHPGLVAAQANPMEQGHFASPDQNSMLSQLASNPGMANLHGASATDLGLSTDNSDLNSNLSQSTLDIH
Procedure: as §1, §2, §3, §4, §5, §6, §7

T1 sequence (Q92793 whole entry): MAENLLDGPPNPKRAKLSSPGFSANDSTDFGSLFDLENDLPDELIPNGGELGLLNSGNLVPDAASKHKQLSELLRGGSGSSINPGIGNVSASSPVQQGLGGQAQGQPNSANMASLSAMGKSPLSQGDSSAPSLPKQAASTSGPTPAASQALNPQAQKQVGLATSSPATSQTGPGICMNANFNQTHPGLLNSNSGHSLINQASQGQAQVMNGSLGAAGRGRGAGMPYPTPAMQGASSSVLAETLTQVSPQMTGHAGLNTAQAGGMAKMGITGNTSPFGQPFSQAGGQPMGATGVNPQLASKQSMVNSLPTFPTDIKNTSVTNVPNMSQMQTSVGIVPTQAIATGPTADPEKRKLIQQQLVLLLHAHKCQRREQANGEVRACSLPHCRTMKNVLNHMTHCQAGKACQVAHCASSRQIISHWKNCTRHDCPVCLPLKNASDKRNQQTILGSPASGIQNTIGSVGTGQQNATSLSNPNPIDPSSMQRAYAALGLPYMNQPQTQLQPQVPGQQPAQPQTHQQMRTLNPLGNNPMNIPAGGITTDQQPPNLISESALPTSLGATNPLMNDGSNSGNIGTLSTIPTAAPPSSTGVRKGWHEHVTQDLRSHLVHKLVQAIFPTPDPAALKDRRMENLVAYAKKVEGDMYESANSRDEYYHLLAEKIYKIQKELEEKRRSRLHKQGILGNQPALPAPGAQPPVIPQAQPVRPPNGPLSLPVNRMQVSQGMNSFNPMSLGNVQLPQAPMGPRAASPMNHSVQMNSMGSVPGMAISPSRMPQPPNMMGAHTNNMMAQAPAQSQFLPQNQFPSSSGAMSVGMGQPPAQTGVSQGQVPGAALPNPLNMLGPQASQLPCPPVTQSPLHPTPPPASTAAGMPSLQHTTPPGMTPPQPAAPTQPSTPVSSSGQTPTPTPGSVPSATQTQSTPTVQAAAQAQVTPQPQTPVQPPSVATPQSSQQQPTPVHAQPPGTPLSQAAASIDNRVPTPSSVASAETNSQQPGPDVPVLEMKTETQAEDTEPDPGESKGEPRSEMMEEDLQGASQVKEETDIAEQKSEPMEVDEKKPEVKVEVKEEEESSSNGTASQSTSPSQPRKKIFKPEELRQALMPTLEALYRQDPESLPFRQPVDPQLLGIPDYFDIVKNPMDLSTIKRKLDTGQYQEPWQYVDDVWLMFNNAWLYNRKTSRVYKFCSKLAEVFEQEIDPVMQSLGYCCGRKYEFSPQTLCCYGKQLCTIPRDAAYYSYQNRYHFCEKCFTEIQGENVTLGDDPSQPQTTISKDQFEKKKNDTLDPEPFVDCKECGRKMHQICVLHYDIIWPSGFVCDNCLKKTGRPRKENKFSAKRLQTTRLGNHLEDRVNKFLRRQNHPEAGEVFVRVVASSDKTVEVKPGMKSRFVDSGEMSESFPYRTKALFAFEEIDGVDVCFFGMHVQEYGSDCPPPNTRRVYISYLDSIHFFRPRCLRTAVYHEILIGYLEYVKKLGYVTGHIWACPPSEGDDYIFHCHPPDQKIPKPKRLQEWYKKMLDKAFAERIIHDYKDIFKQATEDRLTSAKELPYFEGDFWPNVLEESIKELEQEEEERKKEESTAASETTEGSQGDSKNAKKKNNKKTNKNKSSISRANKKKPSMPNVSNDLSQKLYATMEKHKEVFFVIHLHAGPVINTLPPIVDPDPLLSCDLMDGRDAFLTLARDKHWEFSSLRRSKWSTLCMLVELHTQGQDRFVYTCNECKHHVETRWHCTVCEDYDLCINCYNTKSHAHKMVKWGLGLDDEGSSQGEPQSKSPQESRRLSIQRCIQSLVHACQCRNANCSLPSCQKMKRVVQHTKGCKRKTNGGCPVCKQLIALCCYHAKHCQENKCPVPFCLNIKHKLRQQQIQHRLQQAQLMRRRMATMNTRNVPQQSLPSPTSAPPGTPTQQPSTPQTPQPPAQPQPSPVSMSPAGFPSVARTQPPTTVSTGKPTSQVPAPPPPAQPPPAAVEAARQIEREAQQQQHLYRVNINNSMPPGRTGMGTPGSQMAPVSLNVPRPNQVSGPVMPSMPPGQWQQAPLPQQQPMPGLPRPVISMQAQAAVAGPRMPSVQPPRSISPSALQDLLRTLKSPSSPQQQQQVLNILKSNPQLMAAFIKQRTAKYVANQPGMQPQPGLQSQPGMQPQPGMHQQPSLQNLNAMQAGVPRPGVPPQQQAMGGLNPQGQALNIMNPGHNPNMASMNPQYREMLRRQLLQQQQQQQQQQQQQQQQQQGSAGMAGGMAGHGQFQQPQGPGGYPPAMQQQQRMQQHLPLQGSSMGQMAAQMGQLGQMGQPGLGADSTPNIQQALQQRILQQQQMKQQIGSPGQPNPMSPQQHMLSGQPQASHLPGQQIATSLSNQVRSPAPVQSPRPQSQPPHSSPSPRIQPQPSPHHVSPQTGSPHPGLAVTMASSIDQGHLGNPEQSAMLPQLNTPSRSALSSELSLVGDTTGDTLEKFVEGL

- time at which CBP/EP300 degradation begins to occur (CBP; 1 μM, time course): ≤ 2 h
- time to reach maximal CBP/EP300 degradation (Dmax) (CBP; 1 μM, time course): 16 to 24 h
- % remaining CBP (CBP; 5 μM compound, 16 h, Western blot): 16%
- DC50 (CBP; 16 h): 40 nM
- Dmax (CBP; LP-1, 16 h): > 85%
- % remaining EP300 (EP300): 43%
Compound: Cc1cc2c(NC(=O)c3cc(NC(=O)CCCCCCCCCCNc4cccc5c4C(=O)N(C4CCC(=O)NC4=O)C5=O)cc(-c4ccn(C)n4)c3)cccc2nn1 (stereo not shown) [dCE-2]
- GI50 (LP1 cells): 1500 nM
